According to BindingDB's records for doi:10.1021/jm00100a015 (Centre De Neurochimie Du Cnrs, 1992):

Biological target: GABA-A receptor (Rattus norvegicus)
Experiment: Affinity for gamma-aminobutyric-acid A receptor measured by its ability to displace [3H]gabazine antagonist from rat brain preparations.

Structure (SMILES) | IC50 [µM]
Cc1cc(-c2ccccc2)nn(CCCC(=O)O)c1=N | 0.8
N=c1ccc(-c2ccsc2)nn1Cc1cc(=O)[nH]o1 | 0.088
